Converted amounts (≈) assume the structure as drawn. The source made the active and inactive calls. No cut-off for these calls is given here.
Tests used:
Escherichia coli [1] = assay: Antibacterial activity against Escherichia coli ATCC 25922 measured after 18 hrs by broth dilution method; format: functional; conditions: ATCC 25922, 18 h
Pseudomonas aeruginosa [2] = assay: Antibacterial activity against Pseudomonas aeruginosa ATCC 27853 measured after 18 hrs by broth dilution method; format: functional; conditions: ATCC 27853, 18 h
Klebsiella pneumoniae [3] = assay: Antibacterial activity against Klebsiella pneumoniae ATCC 700603 measured after 18 hrs by resazurin dye based assay; format: functional; conditions: Klebsiella pneumoniae, 700603, 18 h
Acinetobacter baumannii [4] = assay: Antibacterial activity against Acinetobacter baumannii ATCC 19606 measured after 18 hrs by resazurin dye based assay; format: functional; conditions: ATCC 19606 = CIP 70.34 = JCM 6841, 18 h
Pseudomonas aeruginosa [5] = assay: Potentiation of erythromycin-induced antibacterial activity against Pseudomonas aeruginosa ATCC 27853 assessed as concentration required to restore 2 ug/ml erythromycin activity measured after 18 hrs; format: functional
Escherichia coli [6] = assay: Potentiation of erythromycin-induced antibacterial activity against Escherichia coli ATCC 25922 assessed as concentration required to restore 2 ug/ml erythromycin activity measured after 18 hrs; format: functional
Klebsiella pneumoniae [7] = assay: Potentiation of erythromycin-induced antibacterial activity against Klebsiella pneumoniae ATCC 700603 assessed as concentration required to restore 2 ug/ml erythromycin activity measured after 18 hrs; format: functional
Acinetobacter baumannii [8] = assay: Potentiation of erythromycin-induced antibacterial activity against Acinetobacter baumannii ATCC 19606 assessed as concentration required to restore 2 ug/ml erythromycin activity measured after 18 hrs; format: functional, ATCC 19606 = CIP 70.34 = JCM 6841
HEK293 = assay: (§1) Cytotoxicity against HEK293 cells measured after 20 hrs by resazurin dye based fluorescence assay; format: cell-based, Homo sapiens; conditions: Homo sapiens, HEK293, 20 h
Staphylococcus aureus [9] = assay: Antibacterial activity against Staphylococcus aureus ATCC 25923 measured after 18 hrs by broth dilution method; format: functional; conditions: ATCC 25923, 18 h
Candida albicans [10] = assay: Antifungal activity against Candida albicans ATCC 90028 measured after 36 hrs; format: functional; conditions: ATCC 90028, 36 h
Cryptococcus neoformans [11] = assay: Antifungal activity against Cryptococcus neoformans ATCC 208821 measured after 36 hrs by resazurin dye based assay; format: functional; conditions: ATCC 208821, 36 h
Klebsiella pneumoniae [12] = assay: Antibacterial activity against Klebsiella pneumoniae ATCC 700603 at 32 ug/ml measured after 18 hrs by resazurin dye based assay; format: functional, organism-based
Acinetobacter baumannii [13] = assay: Antibacterial activity against Acinetobacter baumannii ATCC 19606 at 32 ug/ml measured after 18 hrs by resazurin dye based assay; format: functional, organism-based; conditions: ATCC 19606 = CIP 70.34 = JCM 6841
Cryptococcus neoformans [14] = assay: Antifungal activity against Cryptococcus neoformans ATCC 208821 at 32 ug/ml measured after 36 hrs by resazurin dye based assay; format: functional, organism-based
Pseudomonas aeruginosa [15] = assay: Potentiation of doxycycline-induced antibacterial activity against Pseudomonas aeruginosa ATCC 27853 assessed as concentration required to restore 2 ug/ml doxycycline activity measured after 18 hrs; format: functional
L6 = assay: Cytotoxicity against rat L6 cells measured after 72 hrs by alamar blue assay; format: cell-based; conditions: L6, 72 h
[16] = as §1; format: cell-based, Homo sapiens; conditions: human, HEK293 cells
Erythrocyte [17] = assay: Hemolytic activity against human RBC incubated for 10 mins under shaking condition measured after 1 hr; format: ADME, cell-based
Erythrocyte [18] = assay: Hemolytic activity against human RBC at 32 ug/ml incubated for 10 mins under shaking condition measured after 1 hr; format: ADME, cell-based
Staphylococcus aureus [19] = assay: Induction of membrane depolarization in Staphylococcus aureus ATCC 25923 measured after 15 mins by DiSC3(5) dye based spectrofluorometric method; format: functional, organism-based
[20] = test system: Staphylococcus intermedius; assay: Antibacterial activity against Staphylococcus intermedius 1051997 measured after 18 hrs by broth dilution method; format: functional; conditions: Staphylococcus intermedius, 1051997, 18 h
Candida albicans [21] = assay: Antifungal activity against Candida albicans ATCC 90028 at 32 ug/ml measured after 36 hrs; format: functional, organism-based
Pseudomonas aeruginosa [22] = assay: Potentiation of nalidixic acid-induced antibacterial activity against Pseudomonas aeruginosa ATCC 27853 assessed as concentration required to restore 2 ug/ml nalidixic acid activity measured after 18 hrs; format: functional
Escherichia coli [23] = assay: Potentiation of nalidixic acid-induced antibacterial activity against Escherichia coli ATCC 25922 assessed as concentration required to restore 2 ug/ml nalidixic acid activity measured after 18 hrs; format: functional
Klebsiella pneumoniae [24] = assay: Potentiation of nalidixic acid-induced antibacterial activity against Klebsiella pneumoniae ATCC 700603 assessed as concentration required to restore 2 ug/ml nalidixic acid activity measured after 18 hrs; format: functional
Acinetobacter baumannii [25] = assay: Potentiation of nalidixic acid-induced antibacterial activity against Acinetobacter baumannii ATCC 19606 assessed as concentration required to restore 2 ug/ml nalidixic acid activity measured after 18 hrs; format: functional, ATCC 19606 = CIP 70.34 = JCM 6841
Escherichia coli [26] = assay: Potentiation of doxycycline-induced antibacterial activity against Escherichia coli ATCC 25922 assessed as concentration required to restore 2 ug/ml doxycycline activity measured after 18 hrs; format: functional
Klebsiella pneumoniae [27] = assay: Potentiation of doxycycline-induced antibacterial activity against Klebsiella pneumoniae ATCC 700603 assessed as concentration required to restore 2 ug/ml doxycycline activity measured after 18 hrs; format: functional
Acinetobacter baumannii [28] = assay: Potentiation of doxycycline-induced antibacterial activity against Acinetobacter baumannii ATCC 19606 assessed as concentration required to restore 2 ug/ml doxycycline activity measured after 18 hrs; format: functional, ATCC 19606 = CIP 70.34 = JCM 6841
Pseudomonas aeruginosa [29] = assay: Potentiation of chloramphenicol-induced antibacterial activity against Pseudomonas aeruginosa ATCC 27853 assessed as concentration required to restore 2 ug/ml chloramphenicol activity measured after 18 hrs; format: functional
Escherichia coli [30] = assay: Potentiation of chloramphenicol-induced antibacterial activity against Escherichia coli ATCC 25922 assessed as concentration required to restore 2 ug/ml chloramphenicol activity measured after 18 hrs; format: functional
Klebsiella pneumoniae [31] = assay: Potentiation of chloramphenicol-induced antibacterial activity against Klebsiella pneumoniae ATCC 700603 assessed as concentration required to restore 2 ug/ml chloramphenicol activity measured after 18 hrs; format: functional
Acinetobacter baumannii [32] = assay: Potentiation of chloramphenicol-induced antibacterial activity against Acinetobacter baumannii ATCC 19606 assessed as concentration required to restore 2 ug/ml chloramphenicol activity measured after 18 hrs; format: functional, ATCC 19606 = CIP 70.34 = JCM 6841
Pseudomonas aeruginosa [33] = assay: Disruption of membrane integrity in Pseudomonas aeruginosa PAO1 assessed as increase in extracellular ATP level at 10 uL by luciferin-luciferase reagent based luminescence assay; format: functional, organism-based
Pseudomonas aeruginosa [34] = assay: Disruption of membrane integrity in Pseudomonas aeruginosa PAO1 assessed as decrease in intracellular ATP level at 1% by luciferin-luciferase reagent based luminescence assay relative to control; format: functional, organism-based; parameters: scale not given: the % may be the effect or the level left
Staphylococcus aureus [35] = assay: Disruption of membrane integrity in Staphylococcus aureus ATCC 25923 assessed as increase in extracellular ATP level at 10 uL by luciferin-luciferase reagent based luminescence assay; format: functional, organism-based

Row | Molecule | MIC (Escherichia coli [1]) | MIC (Pseudomonas aeruginosa [2]) | MIC (Klebsiella pneumoniae [3]) | MIC (Acinetobacter baumannii [4]) | MIC (Staphylococcus aureus [9]) | MIC (Candida albicans [10]) | MIC (Cryptococcus neoformans [11]) | Activity (Klebsiella pneumoniae [12]) | Activity (Acinetobacter baumannii [13]) | Activity (Pseudomonas aeruginosa [15]) | IC50 (L6) | CC50 at 20 h [16] | MIC [20] | also measured
1 | CC[C@H]1OC(=O)[C@H](C)[C@@H](O[C@H]2C[C@@](C)(OC)[C@@H](O)[C@H](C)O2)[C@H](C)[C@@H](O[C@@H]2O[C@H](C)C[C@H](N(C)C)[C@H]2O)[C@](C)(O)C[C@@H](C)C(=O)[C@H](C)[C@@H](O)[C@]1(C)O [ERYTHROMYCIN] | > 200 µM | > 200 µM | > 200 µM | 200 µM (≈ 147 µg/mL) |  |  |  |  |  |  |  |  |  | Activity (Pseudomonas aeruginosa [5]): 200 µM; Activity (Escherichia coli [6]): 50 µM; Activity (Klebsiella pneumoniae [7]): 50 µM; Activity (Acinetobacter baumannii [8]): 25 µM
2 | CC/C(=C(\c1ccccc1)c1ccc(OCCN(C)C)cc1)c1ccccc1 [TAMOXIFEN] |  |  |  |  |  |  |  |  |  |  |  |  |  | IC50 (HEK293): 24 µM
3 | O=C(NCCCNCCCCCCCNCCCNC(=O)C(=O)c1c[nH]c2cc(Br)ccc12)C(=O)c1c[nH]c2cc(Br)ccc12.O=C(O)C(F)(F)F.O=C(O)C(F)(F)F | 51.4 µM | 51.4 µM | > 33 µM | > 33 µM | 6.4 µM | 16.5 µM | > 33 µM | inactive | inactive | 12.9 µM | 4.4 µM | 10.6 µM |  | Activity (Cryptococcus neoformans [14]): inactive; HC10 (Erythrocyte [17]): > 33 µM; Activity (Erythrocyte [18]): Non-Toxic
4 | CC(C)[C@@H](CC[C@@H](C)[C@H]1CC[C@H]2[C@@H]3[C@H](O)C[C@H]4C[C@@H](NCCCNCCCCN)CC[C@]4(C)[C@H]3CC[C@]12C)OS(=O)(=O)O |  |  |  |  |  |  |  |  |  |  |  |  |  | Activity (Staphylococcus aureus [19]): Dose-dependent effect
5 | O=C(NCCCCNCCCNC(=O)C(=O)c1c[nH]c2cc(Br)ccc12)C(=O)c1c[nH]c2cc(Br)ccc12 | > 200 µM | 50 µM (≈ 32.3 µg/mL) | > 50 µM | > 50 µM | 3.12 µM (≈ 2.02 µg/mL) | > 50 µM | 50 µM (≈ 32.3 µg/mL) | inactive | inactive | >200 µM | 8.7 µM | 2.32 µM | 3.12 µM (≈ 2.02 µg/mL) | Activity (Candida albicans [21]): inactive; HC10 (Erythrocyte [17]): > 50 µM; Activity (Erythrocyte [18]): Non-Toxic
6 | CCn1cc(C(=O)O)c(=O)c2ccc(C)nc21 [NALIDIXIC ACID] | > 200 µM | > 200 µM | 100 µM (≈ 23.2 µg/mL) | > 200 µM |  |  |  |  |  |  |  |  |  | Activity (Pseudomonas aeruginosa [22]): 50 µM; Activity (Escherichia coli [23]): >200 µM; Activity (Klebsiella pneumoniae [24]): 25 µM; Activity (Acinetobacter baumannii [25]): 200 µM
7 | C[C@H]1c2cccc(O)c2C(=O)C2=C(O)[C@]3(O)C(=O)C(C(N)=O)=C(O)[C@@H](N(C)C)[C@@H]3[C@@H](O)[C@@H]21.O [DOXYCYCLINE] | 50 µM | 25 µM | 25 µM | 12.5 µM |  |  |  |  |  | 12.5 µM |  |  |  | Activity (Escherichia coli [26]): 6.25 µM; Activity (Klebsiella pneumoniae [27]): 6.25 µM; Activity (Acinetobacter baumannii [28]): 25 µM
8 | O=C(N[C@H](CO)[C@H](O)c1ccc([N+](=O)[O-])cc1)C(Cl)Cl [CHLORAMPHENICOL] | > 200 µM | > 200 µM | 50 µM (≈ 16.2 µg/mL) | > 200 µM | 1.5 to 3 µM (≈ 0.485 to 0.969 µg/mL) |  |  |  |  |  |  |  | 3 to 6 µM (≈ 0.969 to 1.94 µg/mL) | Activity (Pseudomonas aeruginosa [29]): >200 µM; Activity (Escherichia coli [30]): >200 µM; Activity (Klebsiella pneumoniae [31]): 200 µM; Activity (Acinetobacter baumannii [32]): >200 µM
9 | O=C(NCCCOCCOCCOCCCNC(=O)C(=O)c1c[nH]c2cc(Br)ccc12)C(=O)c1c[nH]c2cc(Br)ccc12 | > 200 µM | > 200 µM | > 44 µM | > 44 µM | > 200 µM | > 44 µM | > 44 µM | inactive | inactive | >200 µM | 75.4 µM | > 44 µM | 12.5 µM (≈ 9.01 µg/mL) | Activity (Candida albicans [21]): inactive; Activity (Cryptococcus neoformans [14]): inactive
10 | O=C(NCCCNCCCCCCCCNCCCNC(=O)C(=O)c1c[nH]c2cc(Br)ccc12)C(=O)c1c[nH]c2cc(Br)ccc12.O=C(O)C(F)(F)F.O=C(O)C(F)(F)F | 50 µM | 6.25 µM | > 32.4 µM | > 32.4 µM | 50 µM | 8.11 µM | 32.4 µM | inactive | inactive | 25 µM | 5.6 µM | 6.2 µM | 12.5 µM | HC10 (Erythrocyte [17]): > 32 µM; Activity (Erythrocyte [18]): Non-Toxic
11 | Cetyl trimethylammonium bromide |  |  |  |  |  |  |  |  |  |  |  |  |  | Activity (Pseudomonas aeruginosa [33]): Active; Activity (Pseudomonas aeruginosa [34]): 10%; Activity (Staphylococcus aureus [35]): Active

— ChEMBL document CHEMBL4339208, “6-Bromoindolglyoxylamido derivatives as antimicrobial agents and antibiotic enhancers” (Bioorg Med Chem, 2019)
